The source of these data is the Bradley open melting point set (2014).

SMILES strings stand for the structures. Values joined by “and” are separate entries in the source; they are usually repeats but may differ in a detail not shown here. Equal entries are not always repeated.

In general, melting point refers to the temperature, or range, at which the solid turns liquid. The compound `O=C2/N=C\1/N(c3cc(c(cc3/N=C/1C(=O)N2)C)C)CC(O)C(O)C(O)CO` (stereo unspecified) [riboflavin] returned a melting point of 280 °C.
As to `Cc1cc(=O)n(-c2ccccc2)n1C` [antipyrine], the melting point is 112 °C.
In turn, `N#CCCCCCCC#N` [1,6-dicyanohexane] gave a melting point of -3 °C.
`CCS(=O)(=O)c1ccc(B(O)O)cc1` [4-(ethylsulfonyl)benzeneboronic acid] yielded a melting point of 137 °C.
Consider `CC(=O)Nc1ccc(Br)c(Cl)c1` [4'-bromo-3'-chloroacetanilide], for which the melting point was determined as 124 °C.
In the case of `N#Cc1ccccc1O` [2-hydroxybenzonitrile], the melting point was 94 °C.
In turn, `Clc1ccc(-c2ccc(Cl)cc2Cl)cc1` [PCB-28] gave a melting point of 58 °C.
Regarding `CCC(C(=O)NC(=O)NC(C)=O)c1ccccc1` (stereo unspecified) [1-Acetyl-3-(2-phenylbutyryl)urea], the melting point came out at 100 °C.
As for `ClCc1ccccc1CCl` [a,a'-dichloro-o-xylene], the figure is 56 °C.
As for `C=Cc1ccc(-c2ccccc2)cc1` [p-phenylstyrene], the melting point worked out at 119 °C.
Turning to `Cc1ccc(C#N)cc1` [p-tolunitrile], the melting point was determined as 28 °C.
As for `O=C(c1ccccc1)c1ccc(-c2ccccc2)cc1` [4-benzoylbiphenyl], the figure is 101 °C; as for `CC(C)[C@@H](NC(=O)OC(C)(C)C)C(=O)O` [N-boc-D-valine], 78 °C.
As to `CC(=O)Nc1ccc(C(C)=O)cc1Br` [4'-acetamido-3'-bromoacetophenone], the melting point was found to be 140 °C.
In the case of `Cc1cccc(C(=O)NCC(=O)O)c1` [3-methylhippuric acid], the melting point worked out at 139 °C.
For the compound `C=C[C@H]1C[N@@]2CC[C@H]1C[C@@H]2[C@@H](O)c1ccnc2ccccc12` [(9S)-Cinchonan-9-ol], the melting point was found to be 265 °C.
Regarding `OCc1ccc(F)cc1Cl` [2-chloro-4-fluorobenzyl alcohol], the melting point stood at 45 °C.
`CNCCO` [2-(Methylamino)ethanol]: the melting point is -4.5 °C.
`OCc1cccc(CO)c1` [1,3-benzenedimethanol] came in with a melting point of 58 °C.
On to `Cc1ccccc1C#N` [o-tolunitrile], for which the melting point is -14 °C.
As to `Brc1cnc2ccccc2c1` [3-bromoquinoline], the melting point was 14 °C.
Turning to `CCCCCCCCCCCCCCCCCCO` [1-octadecanol], the melting point stood at 61 °C.
As for `CC(C)N` [2-aminopropane], the figure is -95 °C.
As for `C[C@]12CCC(=O)CC1CCC1=C2CC[C@@H]2C(=O)CC[C@@H]12` (stereo partly specified) [10-methylgon-8-ene-3,17-dione], the figure is 138 °C.
On to `Nc1cc(Cl)ccc1Cl` [2,5-dichloroaniline], for which the melting point is 50 °C.
`CCCCC1C(=O)N(c2ccccc2)N(c2ccccc2)C1=O` [Phenylbutazone]: the melting point amounted to 105 °C.
For `CC1CCC(C(C)C)C(O)C1` (stereo unspecified) [menthol], the melting point was found to be 45 °C.
As for `O=S(=O)(Cl)Cc1cccc(Cl)c1` [3-chlorophenylmethanesulfonyl chloride], the melting point is 71 °C.
The compound `O=C(OCCOCn1c2N\C(=N/C(=O)c2nc1)N)C` [O-Acetylacyclovir] showed a melting point of 242 °C.
`Cc1cc(C(=O)NCCc2ccc(S(=O)(=O)NC(=O)NN3CCCCCC3)cc2)no1` [glisoxepid]: the melting point is 189 °C.
As for `NC(=O)c1ccccc1N` [2-aminobenzamide], the melting point was 112 °C.
Compound `Nc1cccc(N)c1` [m-phenylenediamine] gave a melting point of 65 °C.
For `Nc1c(Cl)cccc1Cl` [2,6-dichloroaniline], the melting point came to 39 °C.
With `COC(=O)c1cc(OC)c(O)c(OC)c1` [methyl 3,5-dimethoxy-4-hydroxybenzoate], the melting point amounted to 106 °C.
As for `c1cnccn1` [Pyrazine], the melting point is 55 °C.
Take `O=C(c1ccccc1)c1ccc(Cl)c(Cl)c1` [3,4-dichlorobenzophenone]: the melting point turned out to be 102 °C.
As to `OC(C(F)(F)F)C(F)(F)F` [1,1,1,3,3,3-Hexafluoropropan-2-ol], the melting point was -3 °C.
As for `Cc1ccc(B(O)O)cc1Cl` [3-chloro-4-methylbenzeneboronic acid], the figure is 227 °C; as for `CC(=O)N[C@H]1[C@H](OC(C)=O)O[C@H](COC(C)=O)[C@@H](OC(C)=O)[C@@H]1OC(C)=O` [beta-D-glucosamine pentaacetate], 187 °C; as for `ClC1=C(Cl)[C@]2(Cl)C3C(Cl)C(Cl)CC3[C@@]1(Cl)C2(Cl)Cl` (stereo partly specified), 106 °C.
For the compound `CCCCI` [1-iodobutane], the melting point was -103 °C.
With `NC(=O)N1c2ccccc2C=Cc2ccccc21` [carbamazepine], the melting point came to 190 °C.
Regarding `CCn1cc(C(=O)O)c(=O)c2ccc(C)nc21` [Nalidixic Acid], the melting point turned out to be 230 °C.
On to `C=CCN1CC[C@]23CCCC[C@H]2[C@H]1Cc1ccc(O)cc13` [Levallorphan], for which the melting point is 181 °C.
`c1ccc2cc3cc4ccccc4cc3cc2c1` [naphthacene] yielded a melting point of 357 °C.
As for `O=C(CCl)OC(=O)CCl` [chloroacetic anhydride], the figure is 58 °C; as for `O=C1C(Cl)=CC(=NCl)C=C1Cl` [2,6-Dichloro-4-(chloroimino)cyclohexa-2,5-dien-1-one], 67 °C.
Regarding `COc1cc(N=C=S)cc(OC)c1` [3,5-dimethoxyphenyl isothiocyanate], the melting point is 51 °C.
The compound `CC(O)CN` (stereo unspecified) [1-Aminopropan-2-ol] had a melting point of -2 °C.
As for `Cc1cccc(C(=O)O)n1` [6-methylpyridine-2-carboxylic acid], the melting point worked out at 129 °C.
On to `C[C@@H](NC(=O)OCc1ccccc1)C(=O)O` [N-benzyloxycarbonyl-D-alanine], for which the melting point was determined as 85 °C.
As for `O=CC=O` [glyoxal], the melting point was 15 °C.
For the compound `Clc1ccc(Cl)c(I)c1` [1,4-dichloro-2-iodobenzene], the melting point worked out at 21 °C.
`CC[Si](CC)(CC)CC` [tetraethylsilane] showed a melting point of -82 °C.
The value for `Clc1cc2c(cc1Cl)-c1cc(Cl)c(Cl)cc1-2` [Biphenylene, 2,3,6,7-tetrachloro-] was 239 °C; that for `CCCCC[C@H]1CC[C@H](C(=O)O)CC1` [trans-4-n-pentylcyclohexanecarboxylic acid] was 54 °C; that for `COc1cccc(OC)c1O` [2,6-dimethoxyphenol] was 55 °C.
Regarding `COc1ncccc1B(O)O` [2-methoxypyridine-3-boronic acid], the melting point was 137 °C.
Consider `BrBr` [Bromine], for which the melting point was -7.2 °C.
Consider `C=CCCCCCCCCC` [1-undecene], for which the melting point was -49 °C.
As to `N#Cc1c(OCC(F)(F)F)cccc1OCC(F)(F)F` [2,6-bis(2,2,2-trifluoroethoxy)benzonitrile], the melting point is 116 °C.
`NNC(=O)CC(=O)NN` [malonic acid dihydrazide] showed a melting point of 154 °C.
Take `BrCCBr` [1,2-dibromoethane]: the melting point is 10 °C.
The value for `CCCCNCCCC` [di-n-butylamine] was -62 °C; that for `C[C@]12CC[C@H](O)CC1=CC[C@@H]1[C@@H]2CC[C@]2(C)C(=O)CC[C@@H]12` [3-Beta-Hydroxy-5-Androsten-17-One] was 140 °C.
In the case of `CC(=O)c1cccc(N=C=S)c1` [3-acetylphenyl isothiocyanate], the melting point amounted to 24 °C.
Regarding `CCC1(c2ccccc2)NC(=O)N(C)C1=O` (stereo unspecified) [mephenytoin], the melting point was found to be 136 °C.
For `CC(C)Nc1ccc(Nc2ccccc2)cc1` [N-isopropyl-n'-phenyl-p-phenylenediamine], the melting point worked out at 77 °C.
As for `COc1cc(Cc2cnc(N)nc2N)cc(OC)c1OC` [5-(3,4,5-Trimethoxybenzyl)pyrimidine-2,4-diamine], the figure is 201 °C; as for `O=C1c2ccccc2C(C2=CCCCC2)N1Cc1ccccc1` (stereo unspecified) [2-Benzyl-3-cyclohexenylisoindolin-1-one], 110 °C.
As to `Nc1cc(Cl)ccc1[N+](=O)[O-]` [5-chloro-2-nitroaniline], the melting point turned out to be 126 °C.
In the case of `CNC(=O)c1ccc(-c2ccccc2)cc1` [p-phenyl-n-methylbenzamide], the melting point is 86 °C.
With `CC(C)(C)C#N` [trimethylacetonitrile], the melting point was 17 °C.
The value for `O=C(OC[C@H]1O[C@@H](OC(=O)c2cc(O)c(O)c(OC(=O)c3cc(O)c(O)c(O)c3)c2)[C@H](OC(=O)c2cc(O)c(O)c(OC(=O)c3cc(O)c(O)c(O)c3)c2)[C@@H](OC(=O)c2cc(O)c(O)c(OC(=O)c3cc(O)c(O)c(O)c3)c2)[C@@H]1OC(=O)c1cc(O)c(O)c(OC(=O)c2cc(O)c(O)c(O)c2)c1)c1cc(O)c(O)c(OC(=O)c2cc(O)c(O)c(O)c2)c1` was 210 °C; that for `NCCCCCC(=O)O` [6-aminocaproic acid] was 205 °C; that for `Cc1cn([C@H]2C[C@H](N=[N+]=[N-])[C@@H](CO)O2)c(=O)[nH]c1=O` [Zidovudine] was 109 °C.
Compound `CC(COc1ccccc1)NC(C)C(O)c1ccc(O)cc1` (stereo unspecified) [Isolait] yielded a melting point of 103 °C.
As for `CC1(C)C=Nc2ccccc21` [3,3-dimethyl-3H-indole], the figure is 228 °C; as for `NC(=O)c1ccncc1` [isonicotinamide], 157 °C; as for `COc1cc(OC)c2c(c1Cl)O[C@]1(C2=O)C(OC)CC(=O)C[C@H]1C` (stereo partly specified) [griseofulvin], 220 °C.
For the compound `O=C(O)Cc1nn(Cc2nc3cc(C(F)(F)F)ccc3s2)c(=O)c2ccccc12` [zopolrestat], the melting point is 197 °C.
For `NC(=O)C1=C(CCc2ccccc2)CCCC1` [2-(2-phenylethyl)cyclohex-1-ene-1-carboxamide], the melting point was found to be 113 °C.
In turn, `c1ccc2c(c1)cc1ccc3cccc4ccc2c1c34` [Benzo[pqr]tetraphene] registered a melting point of 176 °C.
Regarding `COC(=O)c1ccc(CC#N)cc1` [methyl_p-cyanomethyl_benzoate], the melting point stood at 64 °C.
`c1cc2c3c(cccc3c1)CC2` [acenaphthene]: the melting point is 94 °C (2×) and 95 °C.
For the compound `O=C(O)c1ccccc1I` [2-iodobenzoic acid], the melting point is 162 °C.
